The values below come from patent publication US10098880B2 (CELLWORKS GROUP INC., priority 2014, dated 2018).

For data set [1] the following is noted: cited from earlier work.
Data set [2] concerns the target T1, HMG-CoA reductase (Homo sapiens, UniProt P04035).
T1 sequence (P04035 1-888): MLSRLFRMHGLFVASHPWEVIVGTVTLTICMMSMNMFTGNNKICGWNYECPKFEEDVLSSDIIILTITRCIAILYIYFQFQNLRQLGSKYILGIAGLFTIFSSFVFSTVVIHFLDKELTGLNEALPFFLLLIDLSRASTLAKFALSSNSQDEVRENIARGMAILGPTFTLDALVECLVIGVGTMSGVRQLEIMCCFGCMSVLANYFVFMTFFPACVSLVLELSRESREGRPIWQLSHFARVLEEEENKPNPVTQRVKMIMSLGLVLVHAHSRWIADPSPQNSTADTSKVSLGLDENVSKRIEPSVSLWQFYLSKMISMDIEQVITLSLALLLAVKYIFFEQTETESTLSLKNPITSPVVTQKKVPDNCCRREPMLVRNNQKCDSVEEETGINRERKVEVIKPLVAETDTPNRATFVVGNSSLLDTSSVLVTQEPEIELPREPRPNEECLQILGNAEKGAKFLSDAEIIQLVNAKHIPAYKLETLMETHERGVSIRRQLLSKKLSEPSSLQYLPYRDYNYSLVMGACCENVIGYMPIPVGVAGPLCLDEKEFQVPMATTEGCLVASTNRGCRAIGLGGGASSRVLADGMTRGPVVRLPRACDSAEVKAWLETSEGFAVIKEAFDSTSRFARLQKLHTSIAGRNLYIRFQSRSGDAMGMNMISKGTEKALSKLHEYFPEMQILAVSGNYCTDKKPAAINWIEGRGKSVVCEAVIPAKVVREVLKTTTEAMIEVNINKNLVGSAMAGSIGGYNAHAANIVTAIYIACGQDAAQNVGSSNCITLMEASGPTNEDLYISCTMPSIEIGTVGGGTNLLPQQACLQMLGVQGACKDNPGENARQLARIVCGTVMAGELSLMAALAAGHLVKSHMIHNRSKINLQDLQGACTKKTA
The following applies: in vitro; cited from earlier work.

The test system of data set [3] is U251 cell line (PTEN, TP53 and CDKN2A mutated). The data set is described as follows: In-vitro relative growth assay (CellTiter 96 Aqueous One), U251 cell line. In kind it is cell-based, human. As to conditions: FIG. 4A: Nelfinavir 5 μM, Metformin 0.5 mM, Rosuvastatin 12.5 μM, individually or combined, about 71 hours. The procedure:
(§1) U251 cell line is procured from Sigma-Aldrich (Catalog number: 09063001). The U87 human cell line is procured from ATCC (American Type Culture Collection, Manassas, Va., ATCC® HTB-14TM). LN229 cell line is procured from ATCC (American Type Culture Collection, Manassas, Va., […]). […] 100 μl/well of the diluted sample is added to assay plate containing resuspended cells. […] The assay plate is incubated for about 71 hours followed by addition of about 20 μl of Promega Substrate CellTiter 96 Aqueous One Solution Reagent to each well. It is incubated at 37° C. The absorbance of the sample is read at about 490 nm.

Data set [4] concerns U87 cell line (PTEN and CDKN2A mutated). The data set is described as follows: In-vitro relative growth assay (CellTiter 96 Aqueous One), U87 cell line. In kind it is cell-based, human. As to conditions: FIG. 4A: Nelfinavir 5 μM, Metformin 0.5 mM, Rosuvastatin 12.5 μM, individually or combined, about 71 hours. How it is done: [table] U251 cell line is procured from Sigma-Aldrich (Catalog number: 09063001). The U87 human cell line is procured from ATCC (American Type Culture Collection, Manassas, Va., ATCC® HTB-14TM). LN229 cell line is procured from ATCC (American Type Culture Collection, Manassas, Va., […]). […] DMSO, Digitoxin and drugs (Nelfinavir, Metformin and Rosuvastatin individually and in combination) are serial diluted in an assay media. 100 μl/well of the diluted sample is added to assay plate containing resuspended cells. […] The assay plate is incubated for about 71 hours followed by addition of about 20 μl of Promega Substrate CellTiter 96 Aqueous One Solution Reagent to each well. It is incubated at 37° C. The absorbance of the sample is read at about 490 nm.

In data set [5] the test system is LN229 cell line (TP53 and CDKN2A mutated). Description: In-vitro relative growth assay (CellTiter 96 Aqueous One), LN229 cell line. In kind it is cell-based, human. The following applies: FIG. 4A: Nelfinavir 5 μM, Metformin 0.5 mM, Rosuvastatin 12.5 μM, individually or combined, about 71 hours. The procedure: as §1
Data set [6] deals with AKT (Homo sapiens, UniProt P31749). The following applies: reported, PMID 23454896; inhibition of AKT phosphorylation at Ser473; cited from earlier work.
For data set [7] the following is noted: cited from earlier work. The source holds these as a separate data set.
The conditions of data set [8]: cited from earlier work. This is another data set of the same source.
Where [9] appears, read: oral 750 mg dose containing 14C-nelfinavir.

Chain of AKT (P31749 whole entry): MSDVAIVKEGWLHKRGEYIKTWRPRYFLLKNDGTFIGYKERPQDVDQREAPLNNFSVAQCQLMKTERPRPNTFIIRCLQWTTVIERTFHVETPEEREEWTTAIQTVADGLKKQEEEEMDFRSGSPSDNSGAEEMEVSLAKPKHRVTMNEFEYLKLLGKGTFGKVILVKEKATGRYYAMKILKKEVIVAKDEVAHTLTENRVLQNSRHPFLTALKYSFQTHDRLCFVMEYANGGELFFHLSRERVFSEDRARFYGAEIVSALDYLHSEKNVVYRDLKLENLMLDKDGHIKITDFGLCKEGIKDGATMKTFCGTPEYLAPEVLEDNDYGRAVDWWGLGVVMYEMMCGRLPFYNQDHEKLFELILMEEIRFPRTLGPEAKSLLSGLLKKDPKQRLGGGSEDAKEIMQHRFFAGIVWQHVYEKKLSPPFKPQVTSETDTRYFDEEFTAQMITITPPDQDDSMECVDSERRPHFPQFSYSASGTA

Regarding `CN(C)C(=N)N=C(N)N` [Metformin, 1-carbamimidamido-N,N-dimethyl-methanimidamide], the “time of peak action” value in data set [1] (after oral administration) is 3 h. In addition, in data set [1] (in vivo), the Duration of action was 8 to 12 h and the “time over which absorbed” value is 6 h. For the same compound, in data set [1] (those with healthy renal function), the “drug eliminated in 24 hours” value was “Approximately 90%”.
As to `CC(C)c1nc(NS(C)(=O)=O)nc(-c2ccc(F)cc2)c1/C=C/[C@@H](O)C[C@@H](O)CC(=O)O` [N-desmethylrosuvastatin], in data set [2], the “pharmacological activity relative to parent compound” value is “approximately 50%”.
Consider `Cc1c(O)cccc1C(=O)N[C@@H](CSc1ccccc1)[C@H](O)CN1C[C@H]2CCCC[C@H]2C[C@H]1C(=O)NC(C)(C)C` [Nelfinavir, (3S,4aS,8aS)-N-tert-butyl-2-[(2R,3R)-2-hydroxy-3-[(3-hydroxy-2-methylbenzoyl)amino]-4-phenylsulfanylbutyl]-3,4,4a,5,6,7,8,8a-octahydro-1H-isoquinoline-3-carboxamide], for which the “reduction in relative growth” value in data set [3] is reported as “do not show much efficacy”. In data set [4], the “reduction in relative growth” value is listed as “do not show much efficacy”. For the same compound, in data set [5], the “reduction in relative growth” value is on record as “do not show much efficacy”. Also, in data set [6], the “concentration causing AKT inhibition” value is 20 µM. Moreover, in data set [7] (in humans, hepatic CYP450), the “predominant enzymes that metabolize nelfinavir” value is “CYP3A and CYP2C19”. Moreover, the “Half-life (terminal half-life in plasma)” value in data set [7] (in vivo) is 3.5 to 5 h. In data set [7] (setting [9]), the “dose recovered in the feces” value was 87%, the “dose recovered in urine” value is 1-2%, the “fecal radioactivity as oxidative metabolites” value is recorded as 78% and the “fecal radioactivity as unchanged nelfinavir” value is listed as 22%. In data set [7] (oral administration), the Absorption result is “Well absorbed”.
On to `CC(C)c1nc(N(C)S(C)(=O)=O)nc(-c2ccc(F)cc2)c1/C=C/[C@@H](O)C[C@@H](O)CC(=O)O` [Rosuvastatin, (E,3R,5S)-7-[4-(4-fluorophenyl)-2-[methyl(methylsulfonyl)amino]-6-propan-2-ylpyrimidin-5-yl]-3,5-dihydroxyhept-6-enoic acid], for which the “reduction in relative growth” value in data set [3] is “do not show much efficacy”. For the same compound, in data set [4], the “reduction in relative growth” value is on record as “do not show much efficacy”. Besides, the “reduction in relative growth” value in data set [5] was “do not show much efficacy”. For the same compound, in data set [8] (after an intravenous dose), the “total body clearance by the hepatic route” value is reported as 72% and the “total body clearance via the renal route” value is recorded as “approximately 28%”. Besides, the “excreted in the feces (rosuvastatin and its metabolites)” value in data set [8] (following oral administration) is reported as 90%. In data set [8] (in vivo), the Bioavailability entry is listed as “approximately 20%”, the Half-life was 19 h, the excreted as metabolite is around 10% and the “increase of AUC by inhibitors of CYP2C9” value is given as “less than 2 fold”. In addition, in data set [8] (in vivo), the “radiolabeled dose recovered as metabolite” value is recorded as “approximately 10%” and the “share of the pharmacologic action accounted for by parent” value is recorded as “greater than 90%”.
